Measured values published in patent publication US20240254533A1, “METHODS FOR PRODUCING TRYPTAMINE DERIVATIVES” (OCTARINE BIO APS, priority 2021, published 2024).

Experiment: Chemical stability of substituted tryptamine derivatives under alkaline, acidic, oxidative and heat stress
Assay type: physicochemical
Conditions: for Degradation after 24 h exposure (in words): all conditions tested
Procedure: Chemical stability of substituted tryptamine derivatives was determined under alkaline, acidic, oxidative and heat stress as follows. 25 mM stock solutions of the target tryptamine molecules were prepared in 100% methanol. 15 μL is mixed with 5 μL of 400 mM HCl solution (final pH=1.1), 400 mM NaOH solution (Final pH=12.5), 12% H2O2 solution (final concentration 3%), or H2O pH 7.0. Acidic, alkaline and oxidative samples were incubated at 30° C. for 24 h while samples in water were incubated at 80° C. for 24 h. A control under ambient conditions was also prepared where 15 μL of the molecule was added to 5 μL H2O pH 7.0 and incubated at 30° C. After 24 h samples were placed on ice and 60 μL of ice-cold 100% methanol is added to each sample. Samples were centrifuged and transferred to HPLC vials for analysis. The remaining concentration was quantified by comparing to authentic analytical standards. Determining the presence of degradation products were determined by comparing with authentic analytical standards.
While the added phosphate group of psilocybin helps protect the molecule from degradation, psilocybin is also relatively unstable, prone to dephosphorylation to psilocin and subsequent degradation. The instability of these molecules hinders formulation and delivery of the compound for therapeutic use. To improve the chemical stability of the active compound psilocin, glycosylation can be used as an effective strategy. […] Degradation of each compound was assessed by measuring the amount of compound remaining after 24 h exposure to each condition.

[1] = pH = 1.1 (HCl), 24 h incubation
[2] = pH = 12.5 (NaOH), 24 h incubation

Structure (SMILES) | % left after 24 h (3% H2O2, 24 h incubation) [%] | % left after 24 h (4° C., 24 h incubation) [%] | % left after 24 h (30° C., 24 h incubation) [%] | % left after 24 h (80° C., 24 h incubation) [%] | % left after 24 h (Control) [%] | Degradation after 24 h exposure (in words) | % left after 24 h [1] [%] | % left after 24 h [2] [%]
CN(C)CCc1c[nH]c2cccc(O[C@@H]3O[C@H](CO)[C@@H](O)[C@H](O)[C@H]3O)c12 [Psilocin glucoside, psilocin-O-β-D-glucoside] | 100.0 | 100.0 | 100.0 | 100.0 | 100.0 | practically no signs of degradation | 100.0 | 100.0
CN(C)CCc1c[nH]c2cccc(O)c12 [Psilocin] | 0.0 | 0.0 | 0.0 | 0.0 | 100.0 | complete degradation | 0.0 | 0.0
CN(C)CCc1c[nH]c2cccc(OP(=O)(O)O)c12 [Psilocybin] | – | – | – | – | – | much less degradation compared to psilocin | – | –
